Test [1] concerns the target Dual specificity protein kinase CLK1 (Homo sapiens, UniProt P49759). The conditions noted are these: at 10 µM.
Test [2] addresses T1, Dual serine/threonine and tyrosine protein kinase (Homo sapiens) (UniProt Q6XUX3).
T1 sequence (whole entry): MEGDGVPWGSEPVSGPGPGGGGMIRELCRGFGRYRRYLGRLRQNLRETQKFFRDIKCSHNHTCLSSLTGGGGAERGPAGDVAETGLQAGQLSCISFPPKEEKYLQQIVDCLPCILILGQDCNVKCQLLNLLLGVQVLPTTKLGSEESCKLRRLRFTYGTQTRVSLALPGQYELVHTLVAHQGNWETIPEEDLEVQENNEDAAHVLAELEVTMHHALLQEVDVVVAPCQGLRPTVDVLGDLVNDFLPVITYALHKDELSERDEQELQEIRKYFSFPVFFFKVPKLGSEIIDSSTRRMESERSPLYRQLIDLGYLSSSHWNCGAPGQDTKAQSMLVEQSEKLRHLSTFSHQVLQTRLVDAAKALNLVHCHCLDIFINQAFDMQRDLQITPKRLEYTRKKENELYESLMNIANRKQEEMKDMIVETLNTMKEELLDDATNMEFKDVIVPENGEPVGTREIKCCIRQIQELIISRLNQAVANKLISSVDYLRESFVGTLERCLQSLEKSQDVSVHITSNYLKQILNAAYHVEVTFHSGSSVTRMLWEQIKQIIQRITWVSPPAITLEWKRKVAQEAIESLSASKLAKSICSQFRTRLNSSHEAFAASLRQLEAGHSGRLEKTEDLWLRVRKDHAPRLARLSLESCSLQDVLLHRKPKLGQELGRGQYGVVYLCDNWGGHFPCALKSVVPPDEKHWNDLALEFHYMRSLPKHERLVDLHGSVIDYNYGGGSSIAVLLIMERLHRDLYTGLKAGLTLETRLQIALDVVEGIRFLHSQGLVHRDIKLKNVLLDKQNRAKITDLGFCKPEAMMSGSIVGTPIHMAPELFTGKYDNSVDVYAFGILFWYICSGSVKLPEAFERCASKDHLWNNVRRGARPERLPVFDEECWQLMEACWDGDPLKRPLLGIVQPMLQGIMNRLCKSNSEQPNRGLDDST
As to the kind of experiment: Selectivity interaction (KinomeScan (DiscoverX)) EUB0000666a DSTYK. The conditions noted are these: at 10 µM.

The target of test [3] is Dual specificity protein kinase CLK3 (Homo sapiens, UniProt P49761). As to the kind of experiment: Selectivity interaction (Kinase panel (DSF assay)) EUB0001559a CLK3. A general note: DSF heats the sample and reads unfolding from a dye or from intrinsic fluorescence.
Test [4] concerns the target SRSF protein kinase 2 (Homo sapiens) (UniProt P78362). As to the kind of experiment: Selectivity interaction (Ambit KINOMEscan and KiNATiv profiling in Jurkat cells) EUB0000090b SRPK2. The format is cell-based. The conditions noted are these: at 1 µM.
Test [5] deals with T2, NUAK family SNF1-like kinase 1 (Homo sapiens) (UniProt O60285).
T2 sequence (whole entry): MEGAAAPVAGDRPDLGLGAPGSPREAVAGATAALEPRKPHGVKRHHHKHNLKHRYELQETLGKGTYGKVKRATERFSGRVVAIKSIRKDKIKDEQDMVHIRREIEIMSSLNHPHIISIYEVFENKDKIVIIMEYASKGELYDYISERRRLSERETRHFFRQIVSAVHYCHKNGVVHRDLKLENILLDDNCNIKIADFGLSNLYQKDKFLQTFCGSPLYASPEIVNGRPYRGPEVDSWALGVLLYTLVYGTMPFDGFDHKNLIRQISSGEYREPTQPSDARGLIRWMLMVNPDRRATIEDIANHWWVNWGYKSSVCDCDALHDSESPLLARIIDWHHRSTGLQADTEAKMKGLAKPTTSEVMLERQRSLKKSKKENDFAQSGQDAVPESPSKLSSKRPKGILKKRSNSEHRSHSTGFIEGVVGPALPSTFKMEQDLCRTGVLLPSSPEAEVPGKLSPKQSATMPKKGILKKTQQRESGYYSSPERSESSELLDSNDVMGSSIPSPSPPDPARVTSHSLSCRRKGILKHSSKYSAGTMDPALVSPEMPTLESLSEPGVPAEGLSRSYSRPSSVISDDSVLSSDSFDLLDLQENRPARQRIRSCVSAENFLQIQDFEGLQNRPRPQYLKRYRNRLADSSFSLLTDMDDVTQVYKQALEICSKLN
As to the kind of experiment: Selectivity interaction (KinomeScan (DiscoverX)) EUB0000092b NUAK1. The settings on record: at 10 µM.

The target in test [6] is Serine/threonine-protein kinase B-raf (Homo sapiens) (UniProt P15056). As to the kind of experiment: Selectivity interaction (Kinase panel (DSF assay)) EUB0001558a BRAF.
Test [7] has as its target T3, Serine/threonine-protein kinase Sgk3 (Homo sapiens) (UniProt Q96BR1).
T3 sequence (whole entry): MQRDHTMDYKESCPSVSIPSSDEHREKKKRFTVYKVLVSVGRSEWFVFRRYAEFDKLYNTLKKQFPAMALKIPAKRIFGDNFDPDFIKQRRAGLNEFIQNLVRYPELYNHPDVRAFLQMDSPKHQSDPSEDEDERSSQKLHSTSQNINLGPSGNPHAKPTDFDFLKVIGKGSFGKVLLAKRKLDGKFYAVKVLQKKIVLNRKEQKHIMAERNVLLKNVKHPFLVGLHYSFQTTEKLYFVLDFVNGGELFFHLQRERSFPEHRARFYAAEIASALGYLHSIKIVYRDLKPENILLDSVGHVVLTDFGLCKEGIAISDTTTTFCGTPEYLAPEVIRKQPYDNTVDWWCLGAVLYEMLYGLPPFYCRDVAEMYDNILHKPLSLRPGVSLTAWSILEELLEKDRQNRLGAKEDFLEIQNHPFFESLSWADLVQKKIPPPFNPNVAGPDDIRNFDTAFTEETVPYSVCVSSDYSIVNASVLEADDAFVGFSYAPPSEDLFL
As to the kind of experiment: Selectivity interaction (Kinase panel (KiNativ target engagement assay in Jurkat cells)) EUB0001635a SGK3. The conditions noted are these: at 1 µM. The format is cell-based.

Among the data in ChEMBL document CHEMBL5465560, “Selectivity Literature for EUbOPEN Chemogenomic Library” (2024) are % of control, dTM and % of engagement values, retold here.

Chain of Dual specificity protein kinase CLK1 (P49759 whole entry, looked up): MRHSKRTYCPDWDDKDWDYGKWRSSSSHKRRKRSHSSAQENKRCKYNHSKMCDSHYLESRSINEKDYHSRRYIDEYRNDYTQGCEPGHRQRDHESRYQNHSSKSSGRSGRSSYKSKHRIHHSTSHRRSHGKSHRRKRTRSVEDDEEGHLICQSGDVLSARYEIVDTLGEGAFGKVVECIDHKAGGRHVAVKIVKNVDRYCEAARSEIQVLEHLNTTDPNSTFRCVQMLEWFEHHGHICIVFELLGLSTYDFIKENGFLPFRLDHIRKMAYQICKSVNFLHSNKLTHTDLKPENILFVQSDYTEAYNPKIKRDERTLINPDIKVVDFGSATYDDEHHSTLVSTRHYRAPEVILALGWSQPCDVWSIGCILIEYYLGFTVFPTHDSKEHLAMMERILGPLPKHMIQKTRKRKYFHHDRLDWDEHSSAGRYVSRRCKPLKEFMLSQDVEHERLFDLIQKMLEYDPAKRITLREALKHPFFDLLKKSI
Chain of Dual specificity protein kinase CLK3 (P49761 whole entry, looked up): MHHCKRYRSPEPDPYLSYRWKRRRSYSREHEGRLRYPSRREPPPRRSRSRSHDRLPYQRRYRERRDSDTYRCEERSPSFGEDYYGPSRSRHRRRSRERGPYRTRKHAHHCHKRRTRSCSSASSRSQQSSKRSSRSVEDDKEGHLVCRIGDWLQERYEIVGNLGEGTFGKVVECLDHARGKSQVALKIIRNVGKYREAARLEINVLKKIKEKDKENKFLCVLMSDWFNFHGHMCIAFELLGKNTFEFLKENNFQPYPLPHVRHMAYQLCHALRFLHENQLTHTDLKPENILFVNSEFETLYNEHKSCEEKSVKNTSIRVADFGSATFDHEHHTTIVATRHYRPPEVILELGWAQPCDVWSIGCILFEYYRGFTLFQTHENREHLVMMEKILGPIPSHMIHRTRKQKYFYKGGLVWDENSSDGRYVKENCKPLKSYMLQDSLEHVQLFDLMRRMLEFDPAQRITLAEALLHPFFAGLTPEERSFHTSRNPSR
Chain of SRSF protein kinase 2 (Homo sapiens) (P78362 whole entry, looked up): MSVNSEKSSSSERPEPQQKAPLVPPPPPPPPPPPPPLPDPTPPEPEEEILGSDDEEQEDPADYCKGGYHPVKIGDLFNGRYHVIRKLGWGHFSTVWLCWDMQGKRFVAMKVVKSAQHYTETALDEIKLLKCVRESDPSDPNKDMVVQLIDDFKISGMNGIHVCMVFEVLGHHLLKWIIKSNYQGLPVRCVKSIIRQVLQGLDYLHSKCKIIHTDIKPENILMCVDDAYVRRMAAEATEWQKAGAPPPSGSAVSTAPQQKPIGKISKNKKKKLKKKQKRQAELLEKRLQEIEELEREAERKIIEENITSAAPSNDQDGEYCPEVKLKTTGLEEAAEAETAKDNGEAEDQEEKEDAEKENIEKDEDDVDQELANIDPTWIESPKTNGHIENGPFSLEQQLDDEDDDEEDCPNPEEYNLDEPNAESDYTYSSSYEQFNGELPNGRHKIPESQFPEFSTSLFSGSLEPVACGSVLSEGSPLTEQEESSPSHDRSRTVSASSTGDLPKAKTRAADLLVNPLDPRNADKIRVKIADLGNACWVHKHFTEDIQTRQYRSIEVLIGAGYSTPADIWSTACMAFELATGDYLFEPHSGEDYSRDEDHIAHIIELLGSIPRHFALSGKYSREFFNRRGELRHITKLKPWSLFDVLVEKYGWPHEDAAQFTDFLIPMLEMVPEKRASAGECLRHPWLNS
Chain of Serine/threonine-protein kinase B-raf (Homo sapiens) (P15056 whole entry): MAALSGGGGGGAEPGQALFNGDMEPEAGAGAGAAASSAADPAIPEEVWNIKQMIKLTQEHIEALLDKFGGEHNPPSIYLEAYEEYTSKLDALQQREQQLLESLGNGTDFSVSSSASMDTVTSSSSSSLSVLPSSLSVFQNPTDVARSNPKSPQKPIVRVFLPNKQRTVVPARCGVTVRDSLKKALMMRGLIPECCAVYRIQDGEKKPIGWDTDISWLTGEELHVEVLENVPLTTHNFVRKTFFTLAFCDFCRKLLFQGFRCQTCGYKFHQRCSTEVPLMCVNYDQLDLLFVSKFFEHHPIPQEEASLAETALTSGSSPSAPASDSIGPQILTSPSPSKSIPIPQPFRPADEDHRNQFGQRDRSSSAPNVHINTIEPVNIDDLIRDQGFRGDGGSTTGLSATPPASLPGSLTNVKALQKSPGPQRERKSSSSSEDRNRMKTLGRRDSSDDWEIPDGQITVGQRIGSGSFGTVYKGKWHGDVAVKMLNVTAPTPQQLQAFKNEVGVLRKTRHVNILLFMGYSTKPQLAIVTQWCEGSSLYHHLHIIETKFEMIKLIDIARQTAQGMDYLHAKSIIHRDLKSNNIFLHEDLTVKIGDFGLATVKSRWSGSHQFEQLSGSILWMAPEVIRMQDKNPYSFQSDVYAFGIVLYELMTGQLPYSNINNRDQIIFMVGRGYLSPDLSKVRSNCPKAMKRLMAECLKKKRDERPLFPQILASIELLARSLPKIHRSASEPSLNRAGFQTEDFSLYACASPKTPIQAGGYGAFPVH

`CCN(CC)CCCCNc1ncc2cc(-c3cc(OC)cc(OC)c3)c(NC(=O)NC(C)(C)C)nc2n1` returned a % of control in test [1] of 100%.
The molecule `O=C(NOC[C@H](O)CO)c1ccc(F)c(F)c1Nc1ccc(I)cc1F` had a % of control in test [2] of 100%.
As to `CN(C(=O)c1cnn2cccnc12)c1cc2c(cc1N1CCOCC1)C(=O)N(C[C@@H](F)C(C)(C)O)C2`, the dTM in test [3] stood at 0 K.
As for `CN(C)C/C=C/C(=O)Nc1ccc(C(=O)N2CCCC(Nc3ncc(Cl)c(-c4c[nH]c5ccccc45)n3)C2)cc1` (stereo not drawn), the % of control in test [4] turned out to be 98%.
For `CCC(=O)N1CCN(c2ccc(-n3c(=O)ccc4cnc5ccc(-c6cnc7ccccc7c6)cc5c43)cc2C(F)(F)F)CC1`, in test [5], the % of control came out at 100%.
In test [6], `CC(C)(O)[C@H](F)CN1Cc2cc(NC(=O)c3cnn4cccnc34)c(N3CCOCC3)cc2C1=O` showed a dTM of 0 K.
Turning to `C=CC(=O)Nc1ccc(C(=O)Nc2[nH]nc3c2CN(C(=O)N[C@H](CN(C)C)c2ccccc2)C3(C)C)cc1`, the % of engagement in test [7] (Selectivity number of off-targets 0.0, Selectivity number of targets 233.0, Source Knowledge https://www.sciencedirect.com/science/article/pii/S2451945619300674?via%3Dihub) was 15.8%; in test [7], 6.4%.
